Results reported in publication PMC5693986, “Atomic resolution snapshot of Leishmania ribosome inhibition by the aminoglycoside paromomycin” (Nature Communications, 2017).
“And” between values parts separate entries of the source, which are not always exact repeats. Equal values may be shown once. Read-outs that look alike come from different tables or passages of the source.

Key:
[1] = tested on: leishmanial cytosolic ribosome; assay: In vitro inhibition of translation in L. tarentolae lysates (cell-free transcription-translation, EGFP reporter); format: biochemical; conditions: for IC50: L. tarentolae lysates, mean ± SE of at least three independent repeats, read-out: Inhibition of translation—IC50, Leishmania
Source text: (§1) In order to assess cytosolic ribosome susceptibility and selectivity to putative anti-leishmanial compounds, we performed three different cell-free transcription-translation assays in S30 extracts of E. coli (Promega), rabbit reticulocytes (Promega) and L. tarentolae (Jena Bioscience). […] The ribosomes derived from this species are highly similar to L. donovani ribosomes. Three plasmids, compatible with each extract system, were used in this study: pBESTlucTM (Promega) for the prokaryotic translation assay, Luciferase T7 DNA (Promega) for the reticulocytes and pLEXSY-invitro2-EGFP (Jena Bioscience) for Leishmania. Firefly luciferase was used as a reporter gene for the bacterial and reticulocyte systems and EGFP for Leishmania. […] Assays were performed in white polystyrene 96-well flat bottom plates (Nunc) for the luciferase and black polystyrene 384-well flat-bottom plates (Greiner) for the EGFP. Incubation times were 60 min at 37 °C, 90 min at 30 °C and 120 min at 26 °C for the bacterial, reticulocyte and Leishmania systems, respectively. Reactions were stopped by quick snap cooling followed by a 5-min incubation on ice. Luciferase activity was measured for each well following the addition of 50 μl Luciferase Assay reagent (Promega) by recording the chemi-luminescence signal on […] (Tecan). EGFP fluorescence (λ ex = 488 nm; λ em = 507 nm) was recorded on Tecan Infinite R®F200 microplate reader (Tecan). Extracts lacking the circular DNA template were used as negative control to calculate the fluorescence/chemi-luminescence background. Reaction mixtures without compound presence were used as positive control and were regarded as 100% translation. At least six different concentrations were used to plot each translation inhibition curve, experiments were performed in three independent repeats in duplicates. Half-maximal inhibition concentration (IC50) values were calculated from the concentration–response fitting curves of using GraFit7 software.

[2] = tested on: bacterial translation (E. coli S30 extract); assay: In vitro inhibition of translation in E. coli S30 extracts (luciferase reporter); format: biochemical; conditions: mean ± SE of at least three independent repeats, read-out: Inhibition of translation—IC50, Bacteria
Source text: as §1

[3] = biological target: rabbit reticulocyte lysate translation; assay: In vitro inhibition of translation in rabbit reticulocyte lysates (luciferase reporter); format: biochemical; conditions: mean ± SE of at least three independent repeats, read-out: Inhibition of translation—IC50, Reticulocytes
Source text: as §1

[4] = tested on: leishmanial decoding (UGA stop codon read-through); assay: In vitro assessment of misreading (dual-luciferase UGA stop codon read-through) in L. tarentolae lysates; format: biochemical; conditions: for Misreading activity (UGA stop codon read-through) at IC50 levels: at the compound's IC50 concentration, L. tarentolae lysates
Source text: To examine AG modes of action in Leishmania, we designed a dual-reporter assay whereby an in-frame linker containing a UGA stop mutation was introduced in between two genes encoding Renilla and Firefly luciferases cloned into an in vitro Leishmania expression system. A similar system was previously used to assess stop codon read-through events in bacteria as well as other eukaryotes, and as these levels seemed to correspond to tRNA misreading levels it has also been previously used to evaluate infidelity of translation[38],[39].
The content of a p2luc dual-luciferase derived from an SV-40 vector with either wild type or an in-frame TGA stop codon poly-linker was cloned into pLEXSY-invitro2 that is compatible with Leishmania in vitro translation (Jena Bioscience). SV-40 constructs were a generous gift by Professor Timor Baasov. Cloning has been performed by restriction-free (RF) PCR methodology as previously described by Unger et al.[40].
5′-[…]-3′ and 5′-[…]-3′ were used as forward and reverse primers, respectively. Primers were produced by custom design (Sigma). The in vitro misreading assays were performed in L. tarentolae lysates and were designed similarly to the inhibition of translation assay reported herein. The main modifications were that the final reaction volume was adjusted to 20 μl and that the assay has been performed in white polystyrene 96-well flatbottom plates (Nunc). Luciferase activity was determined after 120 min incubation at 26 °C, using the Dual luciferase reporter assay system (Promega) and was performed according to the manufacturer’s instructions.

[5] = tested on: rabbit reticulocyte lysate translation; set-up: method as in PMID 26264664; conditions: rabbit reticulocyte lysates; mean ± SE; read-out: Inhibition of translation—IC50, Reticulocytes; cited from earlier work
[6] = tested on: bacterial translation (E. coli S30 extract); set-up: method as in PMID 26264664; conditions: mean ± SE, read-out: Inhibition of translation—IC50, Bacteria; cited from earlier work

Row | Compound | IC50 [1] | Reduced activity in Leishmania compared to bacteria (inhibition of translation) ([1]; Leishmania versus bacterial ribosome, from Table 1) | IC50 [2] [nM] | IC50 [3] [nM] | Misreading activity (UGA stop codon read-through) at IC50 levels [4] [%] | IC50 [5] [nM] | IC50 [6] [nM] | Misreading of the genetic code (result in words) ([4]; at concentrations corresponding to its IC50 value)
1 | CN[C@@H]1[C@@H](O[C@H]2O[C@H](CO)[C@@H](N)[C@H](O)[C@H]2O)OC2C[C@@H](N)[C@@H](O[C@H]3[C@H](O)[C@@H](O)[C@H](N)C[C@@H]3N)OC2[C@@H]1O (stereo partly shown) [APR, apramycin] | 201000 ± 16100 nM | 4 orders of magnitude | 49 ± 3 | 29000 ± 6000 | 5 |  |  | 
2 | CN[C@@H]1[C@@H](O)[C@@H](O[C@@H]2[C@@H](O)[C@H](O[C@H]3O[C@H]([C@@H](C)O)[C@@H](O)[C@H](O)[C@H]3N)[C@@H](N)C[C@H]2N)OC[C@]1(C)O [G418, geneticin] | 150 nM and 153 nM |  |  |  |  | 2000 ± 300 | 9 ± 1.5 | 
3 | CNC(C)C1CCC(N)C(OC2C(N)CC(N)C(OC3OCC(C)(O)C(NC)C3O)C2O)O1 (stereo not shown) [GEN, gentamicin] | 18400 nM |  | 28 ± 4 | 62000 ± 9000 |  |  |  | 
4 | CNC1CC(N)C(O)C(OC2OC(CO)C(O)C3OC4(OC(C(N)CO)C(O)C(O)C4O)OC23)C1O (stereo not shown) [HYG, hygromycin B] | 65 nM and 64.7 nM |  | 11 ± 2 | 800 ± 100 |  |  |  | does not induce misreading
5 | NC[C@@H]1O[C@H](O[C@H]2[C@@H](O)[C@H](O[C@@H]3[C@@H](O)[C@H](N)C[C@H](N)[C@H]3O[C@H]3O[C@H](CN)[C@@H](O)[C@H](O)[C@H]3N)O[C@@H]2CO)[C@H](N)[C@@H](O)[C@@H]1O [NEO, neomycin B] | 82400 nM |  | 11 ± 1 | 28000 ± 5000 |  |  |  | 
6 | NC[C@@H]1O[C@H](O[C@H]2[C@@H](O)[C@H](O[C@@H]3[C@@H](O)[C@H](N)C[C@H](N)[C@H]3O[C@H]3O[C@H](CO)[C@@H](O)[C@H](O)[C@H]3N)O[C@@H]2CO)[C@H](N)[C@@H](O)[C@@H]1O [PAR, paromomycin] | 3620 ± 176 nM |  |  |  | 26 | 57000 ± 4000 | 51 ± 5 | 
